Laboratory results reported in PubChem BioAssay AID602264 (The Scripps Research Institute Molecular Screening Center, 2012).
Values joined by “and” are separate entries in the source; they are usually repeats but may differ in a detail not shown here. Identical values can stand only once. Active and inactive are the calls of the source. The rule behind the calls is not given here.

Target: Mu-type opioid receptor (Homo sapiens) + Delta-type opioid receptor (Homo sapiens) (UniProt P35372+P41143)
Assay: OPRM1-OPRD1 heterodimer agonist potency – cell-based, luminescence, counter-screen for MC4R biased agonist project, dose response (AID 602264)
Conditions: cell-based OPRM1-OPRD1 heterodimerization

Sequence of Mu-type opioid receptor (Homo sapiens) + Delta-type opioid receptor (Homo sapiens) (P35372 whole entry, looked up): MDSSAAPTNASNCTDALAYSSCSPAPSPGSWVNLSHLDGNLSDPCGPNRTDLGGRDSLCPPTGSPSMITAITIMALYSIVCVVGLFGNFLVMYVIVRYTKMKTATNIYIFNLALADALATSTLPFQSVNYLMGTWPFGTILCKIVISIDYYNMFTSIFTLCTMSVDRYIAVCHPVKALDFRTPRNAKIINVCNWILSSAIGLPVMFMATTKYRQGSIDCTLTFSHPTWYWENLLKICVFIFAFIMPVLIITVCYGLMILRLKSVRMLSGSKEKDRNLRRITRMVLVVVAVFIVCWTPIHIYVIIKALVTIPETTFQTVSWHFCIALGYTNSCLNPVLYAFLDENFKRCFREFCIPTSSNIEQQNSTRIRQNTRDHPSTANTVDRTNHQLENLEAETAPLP
Sequence of Mu-type opioid receptor (Homo sapiens) + Delta-type opioid receptor (Homo sapiens) (P41143 whole entry, looked up): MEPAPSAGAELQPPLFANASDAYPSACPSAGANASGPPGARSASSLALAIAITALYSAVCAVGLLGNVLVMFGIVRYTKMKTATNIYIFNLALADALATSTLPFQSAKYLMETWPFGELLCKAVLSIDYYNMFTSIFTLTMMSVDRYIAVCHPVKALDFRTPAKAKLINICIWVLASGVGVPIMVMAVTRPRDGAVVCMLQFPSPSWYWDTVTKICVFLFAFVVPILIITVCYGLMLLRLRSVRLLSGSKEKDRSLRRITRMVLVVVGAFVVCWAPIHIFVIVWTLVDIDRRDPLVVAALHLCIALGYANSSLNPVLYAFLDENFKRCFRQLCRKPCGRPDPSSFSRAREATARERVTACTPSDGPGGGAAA

| SMILES | EC50 |
| --- | --- |
| COc1ccc(-c2ccc3c(c2)S(=O)(=O)c2cccc(C(=O)NCc4cc(C)oc4C(F)(F)F)c2C3=O)cc1OC | > 92.5 µM (inactive) |
| CCOC(=O)Cc1csc(NC(=O)c2sc3nc4cc(C)ccc4cc3c2N)n1 | > 92.4 µM (inactive) |
| COc1ccc(-c2cc(NC(C)=O)c3ncc(-c4cccc(C(C)=O)c4)n3c2)cc1OC | > 64.6 µM (inactive) |
| CCc1ccc(CCC(=O)Nc2ncc(Cc3ccccc3Cl)s2)o1 | > 92.5 µM (inactive) |
| O=C(c1ccc(COc2ccc(Br)cc2)o1)N1N=C(C(F)F)CC1(O)C(F)F (configuration not stated) | inactive |
| CCn1c(SCC(=O)Nc2ccc(C(C)=O)cc2)nc2nc3c(cc2c1=O)CCCC3 | > 64.6 µM (inactive) |
| COc1ccccc1NC(=O)Nc1nc(C(N)Cc2ccc(Cl)cc2)cs1 (configuration not stated) | > 92.5 µM (inactive) |
| CC(=O)Nc1cc(-c2ccc(N(C)C)cc2)cn2c(-c3ccc(F)c(Cl)c3)cnc12 | > 92.5 µM (inactive) |
| Clc1ccc(C2=Nn3c(nnc3-c3cc(-c4ccccc4)n[nH]3)SC2)cc1 | inactive |
| CCC(C)NC(=O)c1c(N)n(/N=C/c2cccnc2)c2nc3ccccc3nc12 (configuration not stated) | > 92.4 µM (inactive) |
| CC1(C)Oc2ccc3ccc(=O)oc3c2/C(=C/Nc2ccc(O)cc2)C1=O | > 64.6 µM (inactive) |
| Cc1cc(C)cc(OCC(O)CN2CCC(CN3C(=O)c4cccc5cccc(c45)C3=O)CC2)c1 (configuration not stated) | > 64.6 µM (inactive) |
| CCOc1ccc(NC(=S)NC(=O)/C=C/c2ccc(C)cc2)c([N+](=O)[O-])c1 | > 64.6 µM (inactive) |
| CC(=O)Nc1cc(-c2cccnc2)cn2c(-c3ccc(F)cc3)cnc12 | > 64.6 µM (inactive) |
| O=C(CCN1C(=O)/C(=C/C=C/c2ccccc2)SC1=S)Nc1ccccn1 | > 92.5 µM (inactive) |
| CCCCNc1c(-c2cccc(-c3cc(C(C)=O)cs3)c2)nc2ccc(C)cn12 | > 64.6 µM (inactive) |
| CCOC(=O)C(=CNc1ccc2c(c1)nnn2-c1ccc(Cl)cc1)C(=O)OCC | > 64.6 µM (inactive) |
| O=C(N/N=C/c1ccc(OCc2ccccc2)cc1)c1cccs1 | > 92.5 µM (inactive) |
| O=C1C2=C(NC(=S)NC2c2ccc(Cl)cc2)NC(c2ccc(Cl)cc2)N1c1ccc(Cl)cc1 (configuration not stated) | inactive |
| CCOc1cc(NC(=O)c2cccs2)c(OCC)cc1NC(=O)c1ccco1 | > 92.3 µM (inactive) |
| CC(=O)Nc1ccc(-c2csc(NC(=O)Nc3ccccc3)n2)cc1 | > 64.6 µM (inactive) |
| COc1cccc(-c2cnc3c(NC(C)=O)cc(-c4cc(OC)c(OC)c(OC)c4)cn23)c1 | > 64.6 µM (inactive) |

| SMILES | EC50 |
| --- | --- |
| COc1cc(C(=O)Nc2nnc(-c3sccc3C)s2)cc(OC)c1OC | > 92.5 µM (inactive) |
| CC(O)CC(=O)OC[C@]12CC[C@H]3[C@@](C)(CC[C@H]4C(C)(C)CCC[C@]34C)[C@@H]1CC(C1=CC(=O)OC1O)O2 (some centres not stated) | > 64.6 µM (inactive) |
| COc1cccc(-c2cnc3c(NC=O)cc(-c4cccc(C(=O)N(C)C)c4)cn23)c1 | > 64.6 µM (inactive) |
| O=C(NC(c1ccc(Cl)cc1)c1cccnc1)C1CCN(CCOc2ccc(Cl)cc2Cl)CC1 (configuration not stated) | > 92.4 µM (inactive) |
| O=C(CCN1C(=O)/C(=C/C=C/c2ccccc2)SC1=S)Nc1cccnc1 | > 92.5 µM (inactive) |
| CCCCCCCCCCOC(=O)Cn1c(COc2ccc(OC)cc2)[n+](C)c2ccccc21 | > 92.5 µM (inactive) |
| Nc1c(-c2cccs2)cnn1-c1nc(-c2ccc(Cl)cc2Cl)cs1 | > 64.6 µM (inactive) |
| O=CNc1cc(-c2ccsc2)cn2c(-c3ccccc3)cnc12 | > 92.5 µM (inactive) |
| COc1ccc2sc(-c3ccc(S(C)(=O)=O)cc3)c(C#Cc3cncn3C)c2c1 | > 92.5 µM (inactive) |
| CCOc1cc(CNCCc2c[nH]c3ccccc23)cc(Cl)c1OCC | > 92.5 µM (inactive) |
| COc1cccc(CC2(CO)CCCN(Cc3[nH]c4ccc(C)cc4c3C)C2)c1 (configuration not stated) | > 92.5 µM (inactive) |
| FC(F)(F)c1cccnc1Oc1ccc(C2=NCCS2)cc1 | > 92.4 µM (inactive) |
| CCCCCCCCCCCCCCCC[n+]1cccc(C(=O)N(CC)CC)c1 | > 64.6 µM (inactive) |
| CC1CCC(C(C)C)C(OC(=O)C[n+]2cc(-c3ccc(Cl)cc3)n3c2CCCCC3)C1 (configuration not stated) | > 92.5 µM (inactive) |
| N#C/C(=C\c1cn(CCOc2ccccc2)c2ccccc12)C(=O)NCc1ccco1 | > 92.5 µM (inactive) |
| N#Cc1sc2nc(-c3cccs3)cc(-c3ccc(F)cc3)c2c1N | > 92.5 µM (inactive) |
| O=C(NC(c1ccc(Cl)cc1)c1ccccn1)C1CCN(CCOc2ccc(Cl)cc2Cl)CC1 (configuration not stated) | > 92.4 µM (inactive) |
| CN(C)c1ccccc1-c1cc(NC=O)c2ncc(-c3cccc(C(F)(F)F)c3)n2c1 | > 64.6 µM (inactive) |
| COc1cc(-c2cc(NC=O)c3ncc(-c4ccccc4)n3c2)cc(OC)c1OC | > 64.6 µM (inactive) |
| CC(=O)Nc1cc(-c2ccccc2N(C)C)cn2c(-c3ccccc3)cnc12 | > 92.4 µM (inactive) |
| Cc1ccc(O)c(C(=O)/C=C/c2ccc3c(c2)OCCO3)c1 | > 92.5 µM (inactive) |
| CCN1CCN(Cc2ccc(NC(=O)c3ccc(C)c(NC(=O)C(=O)c4c[nH]c5ccccc45)c3)cc2C(F)(F)F)CC1 | > 10.3 µM (inactive) and > 92.5 µM (inactive) |

| SMILES | EC50 |
| --- | --- |
| CCN1CCN(Cc2ccc(NC(=O)c3cc(NC(=O)c4cc5cccc(OC)c5o4)cc(OC)c3)cc2C(F)(F)F)CC1 | > 64.6 µM (inactive) |
| CN(C)CCNC(=O)c1cccc(-c2cc(NC=O)c3ncc(-c4cccc(C(F)(F)F)c4)n3c2)c1 | > 92.5 µM (inactive) |
| O=C(N=Nc1c(O)n(Cc2ccccc2)c2ccccc12)c1cc2ccccc2cc1O | > 92.5 µM (inactive) |
| COc1ccc(NC(=O)COC(=O)c2c(NC(C)=O)sc(C)c2C)cc1 | > 92.5 µM (inactive) |
| COc1cccc(-c2cnc3c(NC=O)cc(-c4cc(OC)c(OC)c(OC)c4)cn23)c1 | > 92.5 µM (inactive) |
| COc1cc(-c2cc(NC=O)c3ncc(-c4ccc(C(C)=O)cc4)n3c2)cc(OC)c1OC | > 92.5 µM (inactive) |
| CCCOC(=O)c1cccc(Nc2nc(-c3cccnc3)nc3ccccc23)c1 | > 92.6 µM (inactive) |
| COC(=O)c1c(NC(=O)CC2SC(N)=NC2=O)sc2c1CCC(C(C)(C)C)C2 (configuration not stated) | > 92.5 µM (inactive) |
| COc1ccc(-c2csc(C3=C(O)CN(Cc4ccc(Cl)cc4)C3=N)n2)cc1OC | > 64.6 µM (inactive) |
| CCC(C)(C)c1ccc(OCCCC[n+]2cccc(C)c2C)c(C(C)(C)CC)c1 | > 64.6 µM (inactive) |
| Cc1cc(N2CCN(C(=O)c3ccco3)CC2)n2nc(-c3cccc(Cl)c3)cc2n1 | > 64.6 µM (inactive) |
| COc1ccc(-c2cc(NC=O)c3ncc(-c4ccccc4)n3c2)cc1OC | > 64.6 µM (inactive) |
| CN(C)CCNC(=O)c1cccc(-c2cnc3c(NC=O)cc(-c4cccc(C(F)(F)F)c4)cn23)c1 | > 64.6 µM (inactive) |
| Cc1cc(C)c2nc(Nc3nc(-c4ccccc4)cc(=O)[nH]3)nc(C)c2c1 | > 92.5 µM (inactive) |
| Cc1ccc(NC(=O)c2ccccc2OCC(=O)c2ccc(F)cc2)cc1 | > 92.5 µM (inactive) |
| N#C/C(=C\c1ccc(-c2ccc(F)cc2)o1)C(=O)Nc1nc(-c2cccs2)cs1 | > 64.6 µM (inactive) |
| CCCCCCCCCCCCCCCC[N+](C)(C)Cc1ccc(F)cc1 | > 92.5 µM (inactive) |
| Cc1ccc(-c2csc3nc4c5ccccc5c(NCCCN(C)C)nn4c(=O)c23)cc1 | > 64.6 µM (inactive) |
| COc1cc(-c2cc(NC=O)c3ncc(-c4cccc(C(F)(F)F)c4)n3c2)cc(OC)c1OC | > 64.6 µM (inactive) |
| Cc1cccnc1C(NC(=O)C1CCN(CCOc2ccc(Cl)cc2Cl)CC1)c1ccc(Cl)cc1 (configuration not stated) | inactive |
| CCCOc1ccc(C(=O)C(CCC(CNCC)C(=O)c2ccc(OCCC)cc2)CNCC)cc1 (configuration not stated) | > 92.5 µM (inactive) |
| O=C(CSc1ccccc1)Nc1nnc(/C=C/c2ccccc2)s1 | > 92.5 µM (inactive) |

| SMILES | EC50 |
| --- | --- |
| Clc1ccc(Cn2ncc3c(N4CCN(c5ccccc5)CC4)ncnc32)cc1 | > 92.3 µM (inactive) |
| CC(=O)Nc1cc(-c2cccc(C(=O)NCCN(C)C)c2)cn2c(-c3cccc(C(F)(F)F)c3)cnc12 | > 92.5 µM (inactive) |
| Cc1ccccc1-c1nc(-c2ccc(NC(=O)c3ccc4c(c3)OCO4)cc2)no1 | > 92.4 µM (inactive) |
| NC(Cc1ccc(C(F)(F)F)cc1)c1csc(NC(=O)Nc2ccccc2)n1 (configuration not stated) | > 92.5 µM (inactive) |
| Cc1ccc(OCC(=O)NC(=S)Nc2cccc(NC(=O)c3ccccc3)c2)cc1 | > 64.6 µM (inactive) |
| COc1cccc(-c2cnc3c(NC(C)=O)cc(-c4ccc(C(=O)N5CCOCC5)cc4)cn23)c1 | > 64.6 µM (inactive) |
| COc1ccc(-c2cc(NC(C)=O)c3ncc(-c4ccccc4)n3c2)c(OC)c1 | > 92.4 µM (inactive) |
| O=C1OC(c2ccccc2)(c2ccc(O)cc2)c2ccccc21 (configuration not stated) | > 92.5 µM (inactive) |
| COc1ccc(NC(=O)Nc2nnc(-c3ccccc3SCc3ccccc3)s2)cc1 | > 92.5 µM (inactive) |
| CN(C)CCOc1ccc(-c2c(-c3ccccc3)sc3ccccc23)cc1 | > 92.5 µM (inactive) |
| Oc1ccc(N2CCN(c3ncnc4sc(-c5ccccc5)cc34)CC2)cc1 | > 92.4 µM (inactive) |
| NC(Cc1ccc(Cl)cc1)c1csc(NC(=O)Nc2ccccc2)n1 (configuration not stated) | > 64.6 µM (inactive) |
| COc1ccccc1-c1cc(NC=O)c2ncc(-c3cccc(C(F)(F)F)c3)n2c1 | > 64.6 µM (inactive) |
| CC(/C=C/C=C/c1ccccc1)=N/NC(=O)CNc1ccccc1C | > 64.6 µM (inactive) |
| Cc1cc(C)c(CN2CCN(CCCn3cnc(C(=O)Nc4ccc(C)c(C)c4)n3)CC2)c(C)c1 | > 92.5 µM (inactive) |
| Clc1ccc(C[n+]2c(-c3ccccc3)cc(-c3ccccc3)cc2-c2ccccc2)cc1 | > 92.5 µM (inactive) |
| Nc1ccc(C2(c3ccc(N)cc3)c3ccccc3-c3ccccc32)cc1 | > 92.5 µM (inactive) |
| COc1ccc(C(NC(=O)C2CCN(CCOc3ccc(Cl)cc3Cl)CC2)c2ccccc2C)cn1 (configuration not stated) | > 64.6 µM (inactive) |
| O=C(Nc1cc(-c2nc3ccccc3s2)ccc1Cl)c1ccc2c(c1)OCO2 | > 92.4 µM (inactive) |
| COc1ccc2nc(NC(=O)CSc3nc4cccnc4n3C)sc2c1 | > 64.6 µM (inactive) |
| COc1ccc2oc(=O)c(-c3csc(Nc4cccc(O)c4)n3)cc2c1 | > 92.4 µM (inactive) |
